Measured values: patent US20230165872A1, “COMBINATION OF BCMA-DIRECTED T CELL THERAPY AND AN IMMUNOMODULATORY COMPOUND” (Juno Therapeutics, Inc., priority 2020, published 2023)

Tests used:
[1] = system: Irradiated DF-15R target cells; test: Serial stimulation assay of anti-BCMA CAR T cells; format: cell-based, human
Description: A serial stimulation assay or serial re-challenge assay was used to assess activity of anti-BCMA CAR T cells following repeated rounds of antigen stimulation, in the presence and absence of Compound A (iberdomide, (S)-3-[4-(4-morpholin-4-ylmethyl-benzyloxy)-1-oxo-1,3-dihydro-isoindol-2-yl]-piperidine-2,6-dione).
Anti-BCMA CAR+ T cells (generated as described in Example 1) were plated in triplicate at 1×10^5 cells/well on 96-well plates. Irradiated DF-15R target cells, which is a multiple myeloma (MM) cell line generated to be resistant to effect of cell immunomodulatory compounds (Lopez-Girona et al. Leukemia, 2012; 26:2326-2335), were added at an effector-to-target (E:T) ratio of 1:2 in the presence or absence of various concentrations (10 nM) of Iberdomide.
Every 3-4 days (start of each new round), CAR T cells were counted. Cells then were harvested and re-plated at the initial seeding density with fresh media, newly-added Iberdomide at the same concentration, where applicable, and newly-thawed, irradiated target cells. Five rounds of stimulation were carried out during a 19 day culture period. At day 5 and day 9 (24 hours after a re-plating (reset) cytokine production in the supernatant was assessed. Results were assessed in two different donors.

CAR-expressing T cells = test: Prolonged treatment: long-term proliferative potential of CAR-expressing T cells; format: cell-based; design: long term product performance: dose or concentration left out as unconfirmed
RPMI-8226 target cells = test: Acute co-culture cytokine secretion of anti-BCMA CAR T cells with RPMI-8226; format: cell-based, human; settings: RPMI-8226, E:T 1:1, 24 hours, 0.01-10,000 nM, FIG. 2A
Description: Anti-tumor effects of anti-BCMA CAR T cells, alone and in combination with cell immunomodulatory compounds Compound A (iberdomide, (S)-3-[4-(4-morpholin-4-ylmethyl-benzyloxy)-1-oxo-1,3-dihydro-isoindol-2-yl]-piperidine-2,6-dione) or Compound B ((S)-4-(4-(4-(((2-(2,6-dioxopiperidin-3-yl)-1-oxoisoindolin-4-yl)oxy)methyl)benzyl)piperazin-1-yl)-3-fluorobenzonitrile), were assessed in two different BCMA-expressing target multiple myeloma cell lines RPMI-8226 or OPM-2. Anti-BCMA CAR+ T cells were generated as described in Example 1.
The anti-BCMA CAR-expressing T cells were incubated with target cells, RPMI 8226 (BCMA^med human multiple myeloma cell line) or OPM2 cells (BCMA^med human multiple myeloma cell line) target cells, at an E:T ratio of 1:1. The co-culture incubation with target cells was carried out in the presence of Compound A (0.01 nM, 0.1 nM, 1 nM, 10 nM, 100 nM, 1000 nM, or 10,000 nM) or Compound B (0.01 nM, 0.1 nM, 1 nM, 10 nM, 100 nM, 1000 nM, or 10,000 nM).

[2] = system: DF-15(R) (multiple myeloma) cells; test: Murine orthotopic DF-15(R) tumor model (resistant), anti-BCMA CAR T cells plus Compound A; format: in vivo, mouse; settings: combination
Description: Anti-tumor effects of anti-BCMA CAR T cells, alone and in combination with concurrent or delayed administration of Compound A (iberdomide, (S)-3-[4-(4-morpholin ylmethyl-benzyloxy)-1-oxo-1,3-dihydro-isoindol-2-yl]-piperidine-2,6-dione), were assessed in disseminated tumor models. The combinatorial effects were assessed in both tumor models sensitive to and resistant to the immunomodulatory compound. The anti-BCMA CAR T cells used in the study were produced as described in Example 1.
The effects of anti-BCMA CAR-T cells in combination with Compound A was assessed in a murine orthotopic tumor model using DF-15(R) cells, which is a tumor model that is resistant to the immunomodulatory compound. Mice (NOD.Cg-Prkdc^scidIL-2rg^tm1Wj1/SzJ mice (NSG; Jackson Labs)) were injected intravenously (i.v.) with 2×10^6 DF-15(R) (multiple myeloma) cells transfected with firefly luciferase ([…]). Tumor engraftment was allowed to occur for 13 days prior to staging (14 days before CAR-T cell administration) and verified using bioluminescence imaging.
In one study, mice were administered Compound A (1 mg/kg or 3 mg/kg) via oral administration once a day starting from the day before administration of 0.5×10^6 anti-BCMA CAR T cells, and administration of Compound A was continued once a day until 32 days post-CAR T cell administration (concurrent dosing). […]
For bioluminescence imaging (BLI), mice received intraperitoneal (i.p.) injections of luciferin substrate (CaliperLife Sciences, Hopkinton, Mass.) resuspended in PBS (15 μg/g body weight). The average radiance (p/s/cm^2/sr) was determined. Survival of mice treated as described above were assessed and compared over time post-infusion of CAR-expressing T cells. […]
The numbers of CD3+ CAR T cells were determined in the blood at day 6 and day 14 by flow cytometry using antibodies directed against CD3 and the surrogate marker on the CAR-expressing cells.

[3] = 24 hours after first reset (day 5) or second reset (day 9), FIG. 5B

## O=C1CC[C@H](N2Cc3c(OCc4ccc(CN5CCOCC5)cc4)cccc3C2=O)C(=O)N1 [Compound A, (S)-3-[4-(4-morpholin-4-ylmethyl-benzyloxy)-1-oxo-1,3-dihydro-isoindol-2-yl]-piperidine-2,6-dione]
[1]; 10 nM, E:T 1:2, five rounds over 19 days, two donors, FIG. 5A
  anti-BCMA CAR cell counts (number of population doublings): enhanced
[1]; [3]
  IL-2 production: increased
  TNF-alpha production: increased
CAR-expressing T cells; higher concentrations
  long term product performance: detrimental
CAR-expressing T cells; prolonged treatment, 10 or 100 nM
  long-term proliferative potential of CAR-expressing T cells: increase long-term proliferative potential
RPMI-8226 target cells
  CAR T cytokine production (IL-2, TNFα, IFN-gamma in supernatant): enhanced
[2]; concurrent dosing, 1 or 3 mg/kg oral, FIG. 7A
  tumor burden (BLI) versus anti-BCMA CAR T cells alone: reduce tumor burden
[2]; concurrent dosing, FIG. 7B
  survival versus anti-BCMA CAR T cells alone: improve survival
[2]; concurrent regimen, low and high dose, day 6 and day 14, FIG. 7C
  numbers of CD3+ CAR+ T cells in the blood: statistically significant increase
